In patent publication US20090304692A1, “TRIAZINE COMPOUNDS AS PI3 KINASE AND MTOR INHIBITORS” (Wyeth, priority 2008, published 2009):
Where two headings read alike, the source gives them in different places.

Columns and labels:
Human mTOR (FLAG-TOR) = Human mTOR (FLAG-TOR) (Homo sapiens, UniProt P42345); assay: mTOR kinase assay (DELFIA format, purified enzyme); type: biochemical; conditions: read-out: IC50 mTOR
PI3K-α = PI3K-α (Homo sapiens, UniProt P42336); assay: PI3K-alpha fluorescence polarization assay; conditions: read-out: IC50 PI3Kα
PI3K-γ = PI3K-γ (Homo sapiens, UniProt P48736); assay: PI3K-gamma fluorescence polarization assay
[1] = test system: human prostate LNCap tumor cell line; assay: In vitro cell culture growth assay (MTS), LNCap; conditions: read-out: IC50 LNCap
[2] = MTS cell growth assay, three days after drug treatment

PI3K-γ, sequence (P48736 whole entry, species assumed): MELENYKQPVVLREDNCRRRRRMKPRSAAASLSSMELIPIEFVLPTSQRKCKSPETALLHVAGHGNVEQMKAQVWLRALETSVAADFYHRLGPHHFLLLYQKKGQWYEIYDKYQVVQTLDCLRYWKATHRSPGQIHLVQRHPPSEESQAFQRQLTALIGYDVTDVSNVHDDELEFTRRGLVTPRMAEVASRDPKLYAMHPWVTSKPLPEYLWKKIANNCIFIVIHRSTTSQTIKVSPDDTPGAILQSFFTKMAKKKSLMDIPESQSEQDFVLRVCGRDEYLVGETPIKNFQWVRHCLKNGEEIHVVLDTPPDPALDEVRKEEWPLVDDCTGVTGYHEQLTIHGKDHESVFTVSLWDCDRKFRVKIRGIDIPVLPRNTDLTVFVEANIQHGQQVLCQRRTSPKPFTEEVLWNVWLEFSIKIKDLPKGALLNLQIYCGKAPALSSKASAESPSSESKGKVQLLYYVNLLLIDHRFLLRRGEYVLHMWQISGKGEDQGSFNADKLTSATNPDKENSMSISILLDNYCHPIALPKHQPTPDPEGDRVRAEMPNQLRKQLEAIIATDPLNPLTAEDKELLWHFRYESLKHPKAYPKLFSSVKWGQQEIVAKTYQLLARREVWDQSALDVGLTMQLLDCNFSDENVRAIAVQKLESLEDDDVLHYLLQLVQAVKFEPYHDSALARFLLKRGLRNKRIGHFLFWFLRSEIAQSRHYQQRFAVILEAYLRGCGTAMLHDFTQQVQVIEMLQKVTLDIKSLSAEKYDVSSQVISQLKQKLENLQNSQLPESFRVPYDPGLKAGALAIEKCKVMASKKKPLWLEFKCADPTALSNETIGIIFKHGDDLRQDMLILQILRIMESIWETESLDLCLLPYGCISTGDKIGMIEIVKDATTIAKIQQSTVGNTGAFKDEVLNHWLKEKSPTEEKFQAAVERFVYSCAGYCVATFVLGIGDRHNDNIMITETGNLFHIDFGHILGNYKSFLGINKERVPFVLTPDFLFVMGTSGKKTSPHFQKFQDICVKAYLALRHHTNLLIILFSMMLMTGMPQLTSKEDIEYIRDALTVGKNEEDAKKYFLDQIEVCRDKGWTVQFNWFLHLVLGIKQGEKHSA
PI3K-α, sequence (P42336 whole entry, species assumed): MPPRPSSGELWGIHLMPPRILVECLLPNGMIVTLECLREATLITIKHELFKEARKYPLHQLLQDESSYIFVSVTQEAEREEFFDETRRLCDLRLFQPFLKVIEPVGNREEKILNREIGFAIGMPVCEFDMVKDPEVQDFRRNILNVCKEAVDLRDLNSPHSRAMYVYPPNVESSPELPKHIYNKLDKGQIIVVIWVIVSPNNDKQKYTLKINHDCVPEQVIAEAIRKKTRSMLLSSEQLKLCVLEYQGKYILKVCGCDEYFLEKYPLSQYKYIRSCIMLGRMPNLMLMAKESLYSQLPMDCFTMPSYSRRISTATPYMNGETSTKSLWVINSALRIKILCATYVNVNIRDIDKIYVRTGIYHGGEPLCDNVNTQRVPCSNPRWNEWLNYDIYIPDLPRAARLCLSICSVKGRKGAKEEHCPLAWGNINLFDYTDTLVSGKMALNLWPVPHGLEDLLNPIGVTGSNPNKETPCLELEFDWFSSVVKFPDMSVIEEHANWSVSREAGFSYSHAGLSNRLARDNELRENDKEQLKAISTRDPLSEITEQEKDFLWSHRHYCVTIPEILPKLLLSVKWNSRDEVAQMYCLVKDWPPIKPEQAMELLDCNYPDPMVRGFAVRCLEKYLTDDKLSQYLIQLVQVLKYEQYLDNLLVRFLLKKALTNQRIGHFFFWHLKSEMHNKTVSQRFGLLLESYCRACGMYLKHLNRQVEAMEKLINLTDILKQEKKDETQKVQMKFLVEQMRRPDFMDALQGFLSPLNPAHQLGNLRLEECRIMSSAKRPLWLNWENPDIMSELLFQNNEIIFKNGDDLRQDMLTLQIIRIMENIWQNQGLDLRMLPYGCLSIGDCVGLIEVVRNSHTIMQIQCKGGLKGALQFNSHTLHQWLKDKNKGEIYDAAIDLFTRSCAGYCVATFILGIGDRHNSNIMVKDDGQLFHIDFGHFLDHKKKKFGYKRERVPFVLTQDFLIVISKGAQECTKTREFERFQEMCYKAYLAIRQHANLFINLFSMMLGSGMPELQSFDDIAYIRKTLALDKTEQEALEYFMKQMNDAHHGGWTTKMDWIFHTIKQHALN
PI3K-α, sequence (P27986 whole entry partner, species assumed): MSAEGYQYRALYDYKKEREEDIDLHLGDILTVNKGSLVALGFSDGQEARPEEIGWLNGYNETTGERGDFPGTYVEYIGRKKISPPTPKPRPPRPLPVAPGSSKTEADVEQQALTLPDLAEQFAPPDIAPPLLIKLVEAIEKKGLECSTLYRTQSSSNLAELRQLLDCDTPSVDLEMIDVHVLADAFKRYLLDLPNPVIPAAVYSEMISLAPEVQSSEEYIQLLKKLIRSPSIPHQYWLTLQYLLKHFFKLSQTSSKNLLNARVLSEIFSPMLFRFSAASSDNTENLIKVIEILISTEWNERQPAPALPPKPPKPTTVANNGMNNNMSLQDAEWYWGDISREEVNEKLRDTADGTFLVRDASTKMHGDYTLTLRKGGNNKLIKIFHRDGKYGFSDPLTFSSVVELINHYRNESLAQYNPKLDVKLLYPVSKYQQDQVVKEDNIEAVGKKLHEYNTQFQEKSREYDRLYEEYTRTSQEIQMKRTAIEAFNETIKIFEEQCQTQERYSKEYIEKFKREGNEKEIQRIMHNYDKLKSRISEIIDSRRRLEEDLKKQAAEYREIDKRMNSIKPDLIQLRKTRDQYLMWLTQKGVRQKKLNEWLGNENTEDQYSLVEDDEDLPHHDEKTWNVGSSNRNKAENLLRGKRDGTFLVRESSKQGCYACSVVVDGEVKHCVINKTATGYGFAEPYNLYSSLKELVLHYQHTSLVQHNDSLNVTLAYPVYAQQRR
Human mTOR (FLAG-TOR), sequence (P42345 1360-2549 limits assumed): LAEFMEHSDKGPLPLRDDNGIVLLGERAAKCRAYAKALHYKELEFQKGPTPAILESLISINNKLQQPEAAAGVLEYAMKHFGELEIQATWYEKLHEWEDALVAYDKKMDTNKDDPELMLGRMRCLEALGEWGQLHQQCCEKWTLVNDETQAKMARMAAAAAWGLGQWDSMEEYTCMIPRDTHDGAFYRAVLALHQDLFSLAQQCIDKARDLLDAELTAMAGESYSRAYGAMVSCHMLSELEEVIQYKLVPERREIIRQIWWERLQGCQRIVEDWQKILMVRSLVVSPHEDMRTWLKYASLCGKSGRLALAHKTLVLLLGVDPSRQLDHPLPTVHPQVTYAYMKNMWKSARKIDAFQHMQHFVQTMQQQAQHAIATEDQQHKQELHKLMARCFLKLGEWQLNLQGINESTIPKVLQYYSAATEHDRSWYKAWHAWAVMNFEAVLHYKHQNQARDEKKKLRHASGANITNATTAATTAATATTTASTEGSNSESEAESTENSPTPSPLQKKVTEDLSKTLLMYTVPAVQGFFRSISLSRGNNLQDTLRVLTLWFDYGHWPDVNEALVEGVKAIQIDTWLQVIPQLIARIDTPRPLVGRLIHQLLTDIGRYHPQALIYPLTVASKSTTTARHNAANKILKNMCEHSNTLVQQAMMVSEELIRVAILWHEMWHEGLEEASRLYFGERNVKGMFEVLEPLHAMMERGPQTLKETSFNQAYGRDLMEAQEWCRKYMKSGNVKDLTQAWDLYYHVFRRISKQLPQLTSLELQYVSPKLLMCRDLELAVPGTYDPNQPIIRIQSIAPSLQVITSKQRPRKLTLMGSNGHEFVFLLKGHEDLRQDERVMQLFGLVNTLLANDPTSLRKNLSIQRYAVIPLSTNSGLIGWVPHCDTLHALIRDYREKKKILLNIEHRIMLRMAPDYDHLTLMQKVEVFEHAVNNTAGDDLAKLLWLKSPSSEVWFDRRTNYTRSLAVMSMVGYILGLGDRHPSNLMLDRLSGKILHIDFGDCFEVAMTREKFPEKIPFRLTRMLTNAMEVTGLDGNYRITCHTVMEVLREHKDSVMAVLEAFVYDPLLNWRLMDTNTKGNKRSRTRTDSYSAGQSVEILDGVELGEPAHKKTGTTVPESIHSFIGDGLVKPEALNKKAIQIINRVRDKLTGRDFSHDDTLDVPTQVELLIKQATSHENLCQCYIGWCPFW

Row | Molecule | IC50 (Human mTOR (FLAG-TOR)) [nM] | IC50 (PI3K-α) [nM] | IC50 (PI3K-γ; read-out: IC50 PI3Kγ) [nM] | IC50 [1, 2] [nM] | IC50 (PI3K-γ) [nM] | IC50 ([1]; Homo sapiens, LNCaP, 72 h) [nM]
1 | 1-(4-(4-(3-oxa-8-azabicyclo[3.2.1]octan-8-yl)-6-(piperidin-4-ylamino)-1,3,5-triazin-2-yl)phenyl)-3-ethylurea [Example 364] | 3.5 | 1460 | 8040 | 70 |  | 
2 | 1-{4-[4-(4-morpholin-4-ylpiperidin-1-yl)-6-(8-oxa-3-azabicyclo[3.2.1]oct-3-yl)-1,3,5-triazin-2-yl]phenyl}-3-pyridin-4-ylurea [Example 121] | 43.5 | 1850 | 4000 | 1000 |  | 
3 | O=C(Nc1ccc(-c2nc(N3CC4CCC(C3)O4)nc(N3CC4CCC(C3)O4)n2)cc1)OCCO [Example 27, 2-hydroxyethyl[4-(4,6-di-8-oxa-3-azabicyclo[3.2.1]oct-3-yl-1,3,5-triazin-2-yl)phenyl]carbamate] | 4.15 | 1230 |  |  | > 10000 | 350
4 | CN1CCN(c2ccc(NC(=O)Nc3ccc(-c4nc(N5CC6CCC(C5)O6)nc(N5CC6CCC(C5)O6)n4)cc3)cc2)CC1 [Example 28, 1-[4-(4,6-di-8-oxa-3-azabicyclo[3.2.1]oct-3-yl-1,3,5-triazin-2-yl)phenyl]-3-[4-(4-methylpiperazin-1-yl)phenyl]urea] | 0.95 | 54 | 5550 |  |  | 2.4
5 | CCNC(=O)Nc1ccc(-c2nc(N3CC4CCC(C3)O4)nc(N3CC4CCC(C3)O4)n2)cc1 [Example 29, 1-[4-(4,6-di-8-oxa-3-azabicyclo[3.2.1]oct-3-yl-1,3,5-triazin-2-yl)phenyl]-3-ethylurea] | 2.8 | 2690 |  |  | > 10000 | 180
6 | O=C(Nc1ccc(-c2nc(N3CC4CCC(C3)O4)nc(N3CC4CCC(C3)O4)n2)cc1)NC1CC1 [Example 30, 1-cyclopropyl-3-[4-(4,6-di-8-oxa-3-azabicyclo[3.2.1]oct-3-yl-1,3,5-triazin-2-yl)phenyl]urea] | 2.65 | 2120 |  |  | > 10000 | 90
7 | O=C(Nc1ccncc1)Nc1ccc(-c2nc(N3CC4CCC(C3)O4)nc(N3CC4CCC(C3)O4)n2)cc1 [Example 31, 1-[4-(4,6-di-8-oxa-3-azabicyclo[3.2.1]oct-3-yl-1,3,5-triazin-2-yl)phenyl]-3-pyridin-4-ylurea] | 0.49 | 142 | 3520 |  |  | 45
8 | O=C(Nc1ccc(CO)cc1)Nc1ccc(-c2nc(N3CC4CCC(C3)O4)nc(N3CC4CCC(C3)O4)n2)cc1 [Example 32, 1-[4-(4,6-di-8-oxa-3-azabicyclo[3.2.1]oct-3-yl-1,3,5-triazin-2-yl)phenyl]-3-[4-(hydroxymethyl)phenyl]urea] | 0.29 | 45 | 2540 |  |  | 0.7
9 | CC(C)(C)OC(=O)N1CCN(c2nc(-c3ccc(NC(=O)Nc4ccncc4)cc3)nc(N3CC4CCC(C3)O4)n2)CC1 [Example 106, Tert-butyl 4-(4-(8-oxa-3-azabicyclo[3.2.1]octan-3-yl)-6-(4-(3-pyridin-4-ylureido)phenyl)-1,3,5-triazin-2-yl)piperazine-1-carboxylate] | 7.55 | 393 | 1840 |  |  | 370
10 | O=C(Nc1ccncc1)Nc1ccc(-c2nc(N3CCNCC3)nc(N3CC4CCC(C3)O4)n2)cc1 [Example 107, 1-(4-(4-(8-oxa-3-azabicyclo[3.2.1]octan-3-yl)-6-(piperazin-1-yl)-1,3,5-triazin-2-yl)phenyl)-3-(pyridin-4-yl)urea] | 19 | 115 | 1490 |  |  | 1000
11 | CN1CCN(c2nc(-c3ccc(NC(=O)Nc4ccncc4)cc3)nc(N3CC4CCC(C3)O4)n2)CC1 [Example 108, 1-{4-[4-(4-methylpiperazin-1-yl)-6-(8-oxa-3-azabicyclo[3.2.1]oct-3-yl)-1,3,5-triazin-2-yl]phenyl}-3-pyridin-4-ylurea] | 19 | 586 | 4150 |  |  | 320
12 | O=C(Nc1ccncc1)Nc1ccc(-c2nc(N3CCN(Cc4ccccc4)CC3)nc(N3CC4CCC(C3)O4)n2)cc1 [Example 109, 1-{4-[4-(4-benzylpiperazin-1-yl)-6-(8-oxa-3-azabicyclo[3.2.1]oct-3-yl)-1,3,5-triazin-2-yl]phenyl}-3-pyridin-4-ylurea] | 73.5 | 1460 | 2960 |  |  | 1900
13 | O=C(Nc1ccncc1)Nc1ccc(-c2nc(N3CCN(Cc4cccnc4)CC3)nc(N3CC4CCC(C3)O4)n2)cc1 [Example 110, 1-(4-{4-(8-oxa-3-azabicyclo[3.2.1]oct-3-yl)-6-[4-(pyridin-3-ylmethyl)piperazin-1-yl]-1,3,5-triazin-2-yl}phenyl)-3-pyridin-4-ylurea] | 29 | 884 | 3510 |  |  | 220
14 | CC(=O)N1CCN(c2nc(-c3ccc(NC(=O)Nc4ccncc4)cc3)nc(N3CC4CCC(C3)O4)n2)CC1 [Example 111, 1-{4-[4-(4-acetylpiperazin-1-yl)-6-(8-oxa-3-azabicyclo[3.2.1]oct-3-yl)-1,3,5-triazin-2-yl]phenyl}-3-pyridin-4-ylurea] | 2.3 | 116 | 1830 |  |  | 58
15 | CN(C)CC(=O)N1CCN(c2nc(-c3ccc(NC(=O)Nc4ccncc4)cc3)nc(N3CC4CCC(C3)O4)n2)CC1 [Example 112, 1-(4-{4-[4-(N,N-dimethylglycyl)piperazin-1-yl]-6-(8-oxa-3-azabicyclo[3.2.1]oct-3-yl)-1,3,5-triazin-2-yl}phenyl)-3-pyridin-4-ylurea] | 12 | 488 | 777 |  |  | 300
16 | COC(=O)N1CCN(c2nc(-c3ccc(NC(=O)Nc4ccncc4)cc3)nc(N3CC4CCC(C3)O4)n2)CC1 [Example 114, Methyl 4-[4-(8-oxa-3-azabicyclo[3.2.1]oct-3-yl)-6-{4-[(pyridin-4-ylcarbamoyl)amino]phenyl}-1,3,5-triazin-2-yl]piperazine-1-carboxylate] | 3.15 | 106 | 1180 |  |  | 38
17 | O=C1CCN(c2nc(-c3ccc(NC(=O)Nc4ccncc4)cc3)nc(N3CC4CCC(C3)O4)n2)CC1 [Example 115, 1-(4-(4-(8-oxa-3-azabicyclo[3.2.1]octan-3-yl)-6-(4-oxopiperidin-1-yl)-1,3,5-triazin-2-yl)phenyl)-3-(pyridin-4-yl)urea] | 3.2 | 109 | 2000 |  |  | 200
18 | O=C(Nc1ccncc1)Nc1ccc(-c2nc(N3CCC(O)CC3)nc(N3CC4CCC(C3)O4)n2)cc1 [Example 116, 1-{4-[4-(4-hydroxypiperidin-1-yl)-6-(8-oxa-3-azabicyclo[3.2.1]oct-3-yl)-1,3,5-triazin-2-yl]phenyl}-3-pyridin-4-ylurea] | 2.7 | 1740 | 2310 |  |  | 70
19 | O=C(Nc1ccncc1)Nc1ccc(-c2nc(N3CCC(NCc4ccccc4)CC3)nc(N3CC4CCC(C3)O4)n2)cc1 [Example 117, 1-(4-{4-[4-(benzylamino)piperidin-1-yl]-6-(8-oxa-3-azabicyclo[3.2.1]oct-3-yl)-1,3,5-triazin-2-yl}phenyl)-3-pyridin-4-ylurea] | 83 | 177 | 3000 |  |  | 700
20 | CNC1CCN(c2nc(-c3ccc(NC(=O)Nc4ccncc4)cc3)nc(N3CC4CCC(C3)O4)n2)CC1 [Example 118, 1-(4-{4-[4-(methylamino)piperidin-1-yl]-6-(8-oxa-3-azabicyclo[3.2.1]oct-3-yl)-1,3,5-triazin-2-yl}phenyl)-3-pyridin-4-ylurea] | 195 | 379 | 297 |  |  | 3000
21 | CCNC1CCN(c2nc(-c3ccc(NC(=O)Nc4ccncc4)cc3)nc(N3CC4CCC(C3)O4)n2)CC1 [Example 119, 1-(4-{4-[4-(ethylamino)piperidin-1-yl]-6-(8-oxa-3-azabicyclo[3.2.1]oct-3-yl)-1,3,5-triazin-2-yl}phenyl)-3-pyridin-4-ylurea] | 140 | 1240 | 7530 |  |  | 2800
22 | CN(C)CCNC1CCN(c2nc(-c3ccc(NC(=O)Nc4ccncc4)cc3)nc(N3CC4CCC(C3)O4)n2)CC1 [Example 120, 1-{4-[4-(4-{[2-(dimethylamino)ethyl]amino}piperidin-1-yl)-6-(8-oxa-3-azabicyclo[3.2.1]oct-3-yl)-1,3,5-triazin-2-yl]phenyl}-3-pyridin-4-ylurea] | 79 | 262 | 1550 |  |  | 1200
23 | CN1CCN(C2CCN(c3nc(-c4ccc(NC(=O)Nc5ccncc5)cc4)nc(N4CC5CCC(C4)O5)n3)CC2)CC1 [Example 122, 1-(4-(4-(8-oxa-3-azabicyclo[3.2.1]octan-3-yl)-6-(4-(4-methylpiperazin-1-yl)piperidin-1-yl)-1,3,5-triazin-2-yl)phenyl)-3-(pyridin-4-yl)urea] | 74.5 | 1160 | 9500 |  |  | 900
24 | O=C(Nc1ccncc1)Nc1ccc(-c2nc(N3CCC(NCCO)CC3)nc(N3CC4CCC(C3)O4)n2)cc1 [Example 123, 1-(4-(4-(8-oxa-3-azabicyclo[3.2.1]octan-3-yl)-6-(4-(2-hydroxyethylamino)piperidin-1-yl)-1,3,5-triazin-2-yl)phenyl)-3-(pyridin-4-yl)urea] | 115 | 760 | 6350 |  |  | 4100
